Laboratory results: the NIST ThermoML archive (doi:10.1021/acs.jced.5b00298)
± gives the expanded uncertainty stated by the source.

Test: mn = molality of the nth substance listed, in mol/kg
Settings: 298.15 K, 101 kPa, Liquid, Vibrating tube method

Row | Compound | mass density (m1 = 0.0201) | mass density (m1 = 0.1001) | mass density (m1 = 0.4002) | mass density (m1 = 0.8001) | mass density (m1 = 1) | mass density (m1 = 1.2) | mass density (m1 = 0.1) | mass density (m1 = 0.4001) | mass density (m1 = 0.8002) | mass density (m1 = 1.6) | mass density (m1 = 0.02) | mass density (m1 = 0.8) | mass density (m1 = 1.201) | mass density (m1 = 1.602)
1 | O=S(=O)([O-])[O-].[Na+].[Na+] [sodium sulfate] + O | 999.638 ± 0.087 kg/m3 | 1009.69 ± 0.089 kg/m3 | 1045.75 ± 0.1 kg/m3 | 1090.93 ± 0.12 kg/m3 | 1112.49 ± 0.13 kg/m3 | 1133.41 ± 0.14 kg/m3 | – | – | – | – | – | – | – | –
2 | [Na+].[O-][Cl+3]([O-])([O-])[O-] [sodium perchlorate] + O | 998.644 ± 0.078 kg/m3 | – | – | – | – | 1083.49 ± 0.11 kg/m3 | 1004.82 ± 0.079 kg/m3 | 1027.27 ± 0.087 kg/m3 | 1055.68 ± 0.098 kg/m3 | 1111.93 ± 0.12 kg/m3 | – | – | – | –
3 | O=[N+]([O-])[O-].[Na+] [sodium nitrate] + O | – | 1002.65 ± 0.075 kg/m3 | – | – | – | – | – | 1019.02 ± 0.082 kg/m3 | – | – | 998.191 ± 0.075 kg/m3 | 1040.02 ± 0.09 kg/m3 | 1060.25 ± 0.098 kg/m3 | 1079.67 ± 0.11 kg/m3
